Test results reported in patent US4975433A, “Aminomethyl derivatives of biologically active substances and enhanced delivery thereof across topical membranes” (priority 1989, dated 1990).
≈ marks a conversion by molar mass, not a printed value. Where “and” joins values, the source holds several entries; their conditions need not be identical. Equal entries are not always repeated. Marks after values point to notes of the source that are not given here. Blank lines part the entries; values can stand above or below the compound they belong to.

Legend:
[1] = stability of the bases in water, isopropyl myristate and moisture (NMR, TLC); format: physicochemical; settings: for qualitative order of stability to atmospheric moisture: IPM solution, NMR; for stability in IPM: 24 hours after sonication for 3 hours; for degraded at 48 h: isopropyl myristate, atmospheric moisture, room temperature, two days, read-out: decomposition of base prodrugs in IPM filtrates
Procedure: All the suspensions or solutions were prepared by sonicating mixtures of the drug or prodrugs in the appropriate solvent in sealed flasks for 3 hr. The sealed solutions or suspensions that resulted were allowed to sit at room temperature for 24 hr, then they were briefly (15 sec.) vortexed and 0.50 ml samples were removed and applied to the membranes (area=4.9 cm^2). After an additional 24 hr the remaining sealed suspensions of the prodrugs were filtered, the filtrates and residues were analyzed by inspection of their NMR spectra and TLC to determine if any decomposition of the prodrugs had taken place (none had), and the filtrates were analyzed by UV spectroscopy to determine if the amount of prodrug still in solution corresponded to the solubilities determined in separate experiments (they did). The filtrates were analyzed neat while the residues were dissolved in CDCl3 and the spectra were analyzed for the appearance of the C8 ---H absorption of theophylline at δ7.77 and the C6 ---H absorption of 5-FU at δ7.7. TLC analyses were run using ether as the eluents. The remaining suspensions of the parent drugs were also filtered and the filtrates were analyzed by UV spectroscopy to determine if the amount of drug still in solution corresponded to the solubilities determined in separate experiments (they did).
The derivatives are not stable in the presence of water. […] NMR experiments also supported the low stability of the derivatives in water. Solutions of the bases were prepared in dry DMSO-d6 and then D2 O was added stepwise to the solutions. […] Similar, decomposition of the bases was also observed in other protic solvents such as methanol and propylene glycol.
On the other hand, the stability of the bases in IPM was variable.
When the IPM filtrates, which were used to determine the IPM solubilities of II and III were exposed to atmospheric moisture at room temperature for two days, 50-80% decomposition of the base prodrugs in solution occurred and precipitation of theophylline resulted as determined by analysis of NMR spectra of the solutions and precipitates. The IPM solutions of the other bases eventually decomposed 1-10% upon prolonged exposure (two weeks) to atmospheric moisture. Although no quantitative data were determined, the qualitative order of stability of the theophylline bases to exposure to atmospheric moisture in IMP solution was V=VI>>IV>III>II,as determined by analysis of NMR spectra of their IPM solutions and precipitates from IPM solutions.

[2] = solubilities of prodrugs and parent drugs in selected solvents (Example 8); settings: for trend in IPM solubility: NMR of neat filtrates, UV
[3] = half-lives of hydrolysis of cytosine and 5-fluorocytosine derivatives in phosphate buffer; settings: for half-life: phosphate buffer; for pH dependence of hydrolysis rate: basic pH
[4] = lipid and aqueous solubilities of 5-FC and its derivatives; format: physicochemical; settings: for solubility / Solubility, water: distilled water (pH 5.5), approximate, decomposing; for solubility at 48 h / Solubility, IPM: isopropyl myristate; for solubility at 48 h: organic solvent or mixture, read-out: Solubility, IPM; for Solubility, IPM: 2880 min; for IPM solubility relative to other compound: XIV vs 5-FC molar basis, XIIb vs XIIa
[5] = mouse; for Kp, initial phase: 100000 uM
Procedure: The diffusion experiments were performed in triplicate for each compound. Three female, hairless mice were sacrificed by cervical dislocation, and the entire dorsal skin removed by blunt dissection from the underlying tissues. The skins were secured with a rubber gasket to the diffusion cell, with the dermis in contact with the receptor phase. The receptor side of the cell was filled with isotonic phosphate buffer (pH 73 at 32°, 0.05 M, μ=0.15) with 1% formaldehyde added to inhibit microbial growth. The receptor phase was kept at a constant temperature of 32° and was stirred magnetically.
The donor phases were applied as suspensions (0.5 ml, 0.1 M) to the skin surface. […] Each sample was replaced by an equal amount of fresh buffer.
These last two steps were used to determine the mass balance. This part of the diffusion cell study is termed the first application.
Samples were obtained using the same schedule described above.
The slopes for each phase of the plotted lines were obtained by linear regression analysis (r>0.990); the slopes were then divided by the surface area of the diffusion cells (4.9 cm^2) to obtain a value for flux (J) in mg/cm^2 /h. The reported fluxes are the average flux of the three diffusion cells.

[6] = lipid and aqueous solubilities of 5-IDC and its prodrugs; format: physicochemical; settings: for solubility at 48 h: isopropyl myristate, organic solvent or mixture, read-out: Solubility, IPM
Procedure: The approximate aqueous solubilities were determined by the addition of 100 mg of solid to 1 ml distilled water (pH 5.5). Water was added until all the solid dissolved.
The lipid solubilities of 5-iodo-2'-deoxycytidine and its N-Mannich base prodrugs were determined in isopropyl myristate. Three suspensions of the drug or prodrugs were stirred for 48 hours and then filtered. The filtrates were then diluted with either methanol, for the parent drug or dry acetonitrile, for the N-Mannich base prodrugs. The concentration of compound in solution was determined by monitoring the UV absorption at 294 nm (ε=5.79×10^3 1/mole) for 5-IDC, 333 nm (ε=2.46×10^4) for the formamidine derivative and 296 nm for the derivatives. The aqueous solubilities were obtained as described above.

[7] = flux of theophylline in PG after first application of 5-IDC or prodrug (second application); format: in vitro ADME, hairless mice
Procedure: A suspension of theophylline in PG (Th/PG; 0.5 ml, 0.4M) was then applied to each diffusion cell. […] This phase of the diffusion cell experiment is labelled the second application.
The slopes for each phase of the plotted lines were obtained by linear regression analysis; the slopes were then divided by the surface area of the diffusion cells (4.9 cm^2) to obtain a value for flux (J) in mg/cm^2 /h. The reported fluxes are the average flux for the three cells.

[8] = isopropyl myristate, organic solvent or mixture, Solubility, IPM, stirred at room temperature 24 hr
[9] = water, pH 7, water, Solubility, water (apparent)
[10] = pH 7.1, Half-life of hydrolysis, cytosine derivatives
[11] = isopropyl myristate, organic solvent or mixture, Solubility, IPM, suspensions sonicated for 3 hr
[12] = pH 7.1, Half-life of hydrolysis, 5-FC derivatives

SMILES: CCN(CC)Cn1cnc2c1c(=O)n(C)c(=O)n2C [III, 7-(Diethylamino)methyltheophylline]
qualitative order of stability to atmospheric moisture [1]: V=VI>>IV>III>II | stability in IPM [1]: stable in solution but the IPM insoluble material was theophylline | degraded at 48 h [1]: 50 to 80% | trend in IPM solubility ([2]; IPM): III>IV>VI>II>V | solubility [2, 8]: 32500 µg/mL (≈ 122 mM) | solubility [2, 9]: > 100000 µg/mL

SMILES: CN(C)Cn1cnc2c1c(=O)n(C)c(=O)n2C [II]
degraded at 48 h [1]: 50 to 80% | solubility ([2]; isopropyl myristate, organic solvent or mixture, Solubility, IPM, both sonicated 3 hr and stirred 24 hr): 7600 µg/mL (≈ 32 mM) | solubility [2, 9]: > 100000 µg/mL

SMILES: CCCN(CCC)Cn1cnc2c1c(=O)n(C)c(=O)n2C [IV, 7-(Dipropylamino)methyltheophylline]
qualitative order of stability to atmospheric moisture [1]: V=VI>>IV>III>II | stability in IPM [1]: stable in solution but the IPM insoluble material was theophylline | trend in IPM solubility ([2]; IPM): III>IV>VI>II>V | solubility [2, 8]: 27600 µg/mL (≈ 94.1 mM) | solubility [2, 9]: > 100000 µg/mL

SMILES: Cn1c(=O)c2[nH]cnc2n(C)c1=O [I]
solubility ([2]; isopropyl myristate, organic solvent or mixture): 95 µg/mL (≈ 0.527 mM) | solubility ([2]; propylene glycol, organic solvent or mixture): 16200 µg/mL (≈ 89.9 mM)

SMILES: Cn1c(=O)c2c(ncn2CN2CCOCC2)n(C)c1=O [V, 7-(4'-Morpholinyl)methyltheophylline]
qualitative order of stability to atmospheric moisture [1]: V=VI>>IV>III>II | stability in IPM [1]: stable in IPM either in the solid phase or in solution | Solubility, water (apparent) ([2]; 1.0 ml water (pH 7.0) added to 100 mg, sonicated 10 sec, not accurate, rapid decomposition): > 100000 µg/mL | trend in IPM solubility ([2]; IPM): III>IV>VI>II>V | solubility [2, 11]: 1300 µg/mL (≈ 4.65 mM) | solubility [2, 9]: ~100000 µg/mL (≈ 358 mM)

SMILES: CN(C)CNc1ccn(CN(C)C)c(=O)n1 [X, Bis-N^4,1-(dimethylamino)methylcytosine hydrate]
half-life [3, 10]: 1 min

SMILES: CN(C)CNc1nc(=O)n(CN(C)C)cc1F [XIII, Bis-N^4,1-(dimethylamino)methyl-5-fluorocytosine hydrate]
solubility [4]: > 100000 µg/mL and > 400000 µM | solubility at 48 h [4]: 950 µM | solubility at 48 h ([4]; ±SD): 230 µg/mL | Kp, steady-state phase [5]: 365 cm/h (× 10^3) | Kp, initial phase [5]: 149 cm/h (× 10^3) | pH dependence of hydrolysis rate [3]: hydrolyzed slower at basic pH | half-life ([3]; pH 6, Half-life of hydrolysis): 0.51 min | half-life [3, 12]: 0.74 min | half-life ([3]; pH 8, Half-life of hydrolysis): 0.87 min

SMILES: CCN(CC)CNc1nc(=O)n(CN(CC)CC)cc1F [XIV, Bis-N^4,1-(diethylamino)methyl-5-fluorocytosine hydrate]
IPM solubility relative to other compound [4]: approximately 230 times | solubility [4]: > 100000 µg/mL and > 300000 µM | solubility at 48 h [4]: 9100 µM | solubility at 48 h ([4]; ±SD): 2710 µg/mL | half-life [3, 12]: 0.1 min

Further lines, with some results ahead:

half-life [3, 10]: 9.72 min
SMILES: O=c1nc(NCN2CCOCC2)ccn1CN1CCOCC1 [IXb, Bis-N^4,1-(4'-morpholinyl)methylcytosine hydrate]

qualitative order of stability to atmospheric moisture [1]: V=VI>>IV>III>II | trend in IPM solubility ([2]; IPM): III>IV>VI>II>V | solubility [2, 11]: 10700 µg/mL (≈ 40.6 mM) | solubility [2, 9]: > 100000 µg/mL
SMILES: Cn1c(=O)c2c(ncn2CN2CCCC2)n(C)c1=O [VI, 7-(Pyrrolidyl)methyltheophylline]
stability in IPM [1]: stable in IPM either in the solid phase or in solution

half-life [3, 10]: 1.42 min
SMILES: O=c1nc(NCN2CCCCC2)ccn1CN1CCCCC1 [VIII, Bis-N^4,1-(1'-piperidinyl)methylcytosine]

solubility [2, 11]: 11800 µg/mL (≈ 35.9 mM) | solubility [2, 9]: > 100000 µg/mL
SMILES: O=c1c(F)cn(CN2CCOCC2)c(=O)n1CN1CCOCC1 [VIII]

half-life [3, 10]: 27.2 min
SMILES: CN1CCN(CNc2ccn(CN3CCN(C)CC3)c(=O)n2)CC1 [XI, Bis-N^4,1-(4'-methyl-1'-piperazinyl)methylcytosine hydrate]

Solubility, water [4]: 10 mg/ml and 0.03 M | Solubility, IPM ([4]; ±SD): 5.0 (0.9) mg/ml × 10^2 | Solubility, IPM [4]: 1.6 M(× 10^4) | Kp, steady-state phase [5]: 1671 cm/h (× 10^3) | half-life [3, 12]: 0.89 min
SMILES: O=c1nc(NCN2CCCCC2)c(F)cn1CN1CCCCC1 [XIIa, bis-N^4,1-(1'-piperidinyl)methyl-5-fluorocytosine]

IPM solubility relative to other compound [4]: twice | Solubility, water [4]: 25 mg/ml and 0.08 M | Solubility, IPM ([4]; ±SD): 12.0 (0.5) mg/ml × 10^2 | Solubility, IPM [4]: 3.7 M(× 10^4) | Kp, steady-state phase [5]: 716 cm/h (× 10^3) | Kp, initial phase [5]: 174 cm/h (× 10^3) | Half-life of hydrolysis, 5-FC derivatives ([3]; pH 7.1 phosphate buffer 0.05 M, 24°): 0.90(0.01) min and 0.90 min | half-life ([3]; pH 6, Half-life of hydrolysis): 0.86 min | half-life ([3]; pH 8, Half-life of hydrolysis): 0.79 min
SMILES: O=c1nc(NCN2CCCCC2)c(F)cn1CN1CCCCC1 [XIIb, Bis-N^4,1-(1'-piperidinyl)methyl-5-fluorocytosine]

solubility [4]: > 100000 µg/mL and > 300000 µM | solubility at 48 h [4]: 610 µM | solubility at 48 h ([4]; ±SD): 180 µg/mL | pH dependence of hydrolysis rate [3]: faster | half-life ([3]; pH 6, Half-life of hydrolysis): 1.01 min | half-life [3, 12]: 1.05 min | half-life ([3]; pH 8, Half-life of hydrolysis): 0.66 min
SMILES: O=c1nc(NCN2CCCC2)c(F)cn1CN1CCCC1 [XV, Bis-N^4,1-(1'-pyrrolidyl)methyl-5-fluorocytosine hydrate]

solubility [4]: 25000 µg/mL and 80000 µM | solubility at 48 h [4]: 350 µM | solubility at 48 h ([4]; ±SD): 180 µg/mL | Kp, steady-state phase [5]: 213 cm/h (× 10^3) | Kp, initial phase [5]: 73.9 cm/h (× 10^3) | pH dependence of hydrolysis rate [3]: hydrolyzed slower at basic pH | half-life ([3]; pH 6, Half-life of hydrolysis): 1.19 min | half-life [3, 12]: 9.1 min | half-life ([3]; pH 8, Half-life of hydrolysis): 34.2 min
SMILES: O=c1nc(NCN2CCOCC2)c(F)cn1CN1CCOCC1 [XVI, Bis-N^4,1-(4'-morpholinyl)methyl-5-fluorocytosine hydrate]

solubility [4]: > 100000 µg/mL and > 300000 µM | solubility at 48 h [4]: 220 µM | solubility at 48 h ([4]; ±SD): 71 µg/mL | Kp, steady-state phase [5]: 919 cm/h (× 10^3) | Kp, initial phase [5]: 67.3 cm/h (× 10^3) | pH dependence of hydrolysis rate [3]: hydrolyzed slower at basic pH | half-life ([3]; pH 6, Half-life of hydrolysis): 20.1 min | half-life [3, 12]: 26.3 min | half-life ([3]; pH 8, Half-life of hydrolysis): 28.5 min
SMILES: CN1CCN(CNc2nc(=O)n(CN3CCN(C)CC3)cc2F)CC1 [XVII, Bis-N^4,1-(4'-methyl-1'piperazinyl)methyl-5-fluorocytosine hydrate]

solubility at 48 h [6]: 62 µM | solubility at 48 h ([6]; ±SD): 28 µg/mL | solubility ([6]; pH 5.5, water, apparent): 100000 µg/mL and 222000 µM | X-intercept ([7]; first application in IPM): 1.0 h | Flux of theophylline from PG after first application ([7]; first application in IPM, Th/PG 0.4 M, ±SD): 192 (38) mg/cm^2 /h × 10^3
SMILES: O=c1nc(NCN2CCCCC2)c(I)cn1[C@H]1C[C@H](O)[C@@H](CO)O1 [XXIIa, N^4-(1"-piperidinyl)methyl-5-iodo-2'-deoxycytidine hydrate]
effect on flux of theophylline ([7]; vs IPM): Not significantly different from flux after first application
